# Test results published in patent publication US20130303507A1 (Novartis AG, priority 2011, published 2013).
# Target: Cdk9/cyclinT1 (Homo sapiens, UniProt P50750)
# Assay: Cdk9/cyclinT1 Alpha Screen protocol
# Assay type: biochemical
# Design: Full length wild type Cdk9/cyclin T1 is purchased from Invitrogen; purchased Invitrogen PV4131
# Conditions: neutral species; individual determinations; read-out: CDK9_cyclinT1_AS2_IC50
# Experimental: Cdk9/cyclinT1 Alpha Screen Protocol
# Full length wild type Cdk9/cyclin T1 is purchased from Invitrogen, cat#PV4131. […] The cdk7tide peptide substrate, biotin-[…] -OH, is a custom synthesis purchased from the Tufts University Core Facility. The final concentration of cdk7tide peptide substrate is 200 nM. […] Phospho-Rpb1 CTD (ser2/5) substrate antibody is purchased from Cell Signaling Technology. The final concentration of antibody is 0.67 ug/ml. The Alpha Screen Protein A detection kit containing donor and acceptor beads is purchased from PerkinElmer Life Sciences. The final concentration of both donor and acceptor beads is 15 ug/ml. Alpha Screen is used for detection. […] The biotinylated-cdk7tide peptide substrate is bound to the streptavidin coated donor bead. The antibody is bound to the protein A coated acceptor bead. The antibody will bind to the phosphorylated form of the biotinylated-cdk7tide peptide substrate, bringing the donor and acceptor beads into close proximity. Laser irradiation of the donor bead at 680 nm generates a flow of short-lived singlet oxygen molecules. When the donor and acceptor beads are in close proximity, the reactive oxygen generated by the irradiation of the donor beads initiates a luminescence/fluorescence cascade in the acceptor beads. This process leads to a highly amplified signal with output in the 530-620 nm range. Assays are carried out in 50 mM Hepes, pH=7.5, 10 mM MgCl2, 0.1% Bovine Serum Albumin, 0.01% Tween-20, 1 mM Dithiothreitol, 2.5% Dimethyl Sulfoxide. Stop and detection steps are combined using 50 mM Hepes, pH=7.5, 18 mM EDTA, 0.1% Bovine Serum Albumin, 0.01% Tween-20.
# Cdk9/cyclinT1, sequence (P50750 whole entry): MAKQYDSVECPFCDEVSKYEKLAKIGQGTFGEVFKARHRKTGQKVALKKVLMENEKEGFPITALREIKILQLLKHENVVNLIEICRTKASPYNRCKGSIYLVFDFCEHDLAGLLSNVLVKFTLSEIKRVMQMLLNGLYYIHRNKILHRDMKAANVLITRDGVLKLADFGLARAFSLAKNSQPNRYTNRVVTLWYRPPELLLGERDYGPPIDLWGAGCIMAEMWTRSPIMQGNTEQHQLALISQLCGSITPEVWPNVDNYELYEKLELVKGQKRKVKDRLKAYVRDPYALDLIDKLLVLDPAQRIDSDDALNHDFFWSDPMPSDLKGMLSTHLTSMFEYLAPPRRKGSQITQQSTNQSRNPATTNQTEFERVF
# Cdk9/cyclinT1, sequence (O60563 whole entry partner): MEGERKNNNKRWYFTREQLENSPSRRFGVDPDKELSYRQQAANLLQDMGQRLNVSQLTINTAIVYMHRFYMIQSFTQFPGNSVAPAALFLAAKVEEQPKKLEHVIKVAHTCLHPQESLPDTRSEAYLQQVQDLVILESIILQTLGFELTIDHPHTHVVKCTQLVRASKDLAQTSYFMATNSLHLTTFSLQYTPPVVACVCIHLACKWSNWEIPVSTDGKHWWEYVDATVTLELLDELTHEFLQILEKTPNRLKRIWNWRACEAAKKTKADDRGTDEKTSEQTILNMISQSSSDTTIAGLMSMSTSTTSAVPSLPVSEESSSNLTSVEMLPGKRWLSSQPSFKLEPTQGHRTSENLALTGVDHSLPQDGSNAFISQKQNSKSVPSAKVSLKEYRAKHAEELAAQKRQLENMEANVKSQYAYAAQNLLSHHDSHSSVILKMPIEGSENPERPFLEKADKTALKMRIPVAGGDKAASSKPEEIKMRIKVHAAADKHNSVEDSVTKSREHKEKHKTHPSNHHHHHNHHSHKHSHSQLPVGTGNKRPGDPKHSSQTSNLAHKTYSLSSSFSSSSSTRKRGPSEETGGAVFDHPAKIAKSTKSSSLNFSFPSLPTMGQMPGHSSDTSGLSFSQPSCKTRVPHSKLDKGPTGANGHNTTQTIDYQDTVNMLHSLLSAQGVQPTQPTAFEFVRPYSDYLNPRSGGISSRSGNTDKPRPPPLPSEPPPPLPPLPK
row,SMILES,IC50
1,[2H][C@@](C)(COC)N[C@H]1CC[C@H](Nc2cc(-c3cccc(NCC4(C#N)CCOCC4)n3)c(Cl)cn2)CC1 [Compound 596],< 1 nM
2,[2H][C@](C)(COC)N[C@H]1CC[C@H](Nc2cc(-c3cccc(NCC4(C#N)CCOCC4)n3)c(Cl)cn2)CC1 [Compound 597],< 1 nM
3,[2H]C([2H])([2H])OC[C@H](C)N[C@H]1CC[C@H](Nc2cc(-c3cncc(OCC4(C#N)CCOCC4)n3)c(Cl)cn2)CC1 [Compound 598],1 nM
4,[2H]C([2H])([2H])OC[C@@H](C)N[C@H]1CC[C@H](Nc2cc(-c3cncc(OCC4(C#N)CCOCC4)n3)c(Cl)cn2)CC1 [Compound 599],< 1 nM
5,COC[C@@H](C)N[C@H]1CC[C@@H](Nc2cc(-c3cccc(NCC4(C#N)CCOCC4)n3)c(Cl)cn2)CC1 [Compound 601],25 nM
6,COC[C@H](C)N[C@H]1CC[C@@H](Nc2cc(-c3cccc(NCC4(C#N)CCOCC4)n3)c(Cl)cn2)CC1 [Compound 602],8.1 nM
7,COCC(C)N[C@H]1CC[C@@H](Nc2cc(-c3cccc(NCC4(C#N)CCOCC4)n3)c(Cl)cn2)CC1 (some centres unmarked) [Compound 603],5.6 nM

# System: neointima formation
# Assay: not given
# Conditions: in rats; cited from earlier work
row,SMILES,inhibition of neointima formation
1,COc1ccc(CNc2nc(N(CCO)CCO)nc3c2ncn3C(C)C)cc1 [CVT-313],greater than 80%
